# Assay results taken from US11370796B2, “Substituted pyrazoles as LRRK2 inhibitors” (OSCOTEC INC., priority 2017, dated 2022).
# Where two headings read alike, the source gives them in different places.
# Biological target: LRRK2 (leucine-rich repeat kinase 2) (Homo sapiens (Human), UniProt Q5S007)
# Test: Inhibitory effect on LRRK2 in vitro (LANCE kinase assay)
# Assay type: biochemical
# Experimental: The inhibitory effect of Compounds 1 to 62 on LRRK2 (leucine-rich repeat kinase 2) in vitro was measured. In the analysis of the results, IC50 values were calculated for a quantitative comparison of the in vitro activity.
# After the compound was dissolved in 100% DMSO at 10 mM, it was serially diluted to the range of 1 μM to 10 μM using biochemical LRRK2 assay buffer (50 mM HEPES (4-(2-hydroxyethyl)-1-piperazineethanesulfonic acid) pH 7.5, 10 mM MgCl2, 1 mM EGTA (1,2-bis(o-aminophenoxy)ethane-N,N,N′,N′-tetraacetic acid), 2 mM DTT (dithiothreitol), and 0.01% TWEEN-20 (Aldrich)). Purified LRRK2 (CARNA BIOSCIENCES) was added to a black U-bottom 96-well microtiter plate containing 6 μl of the serially diluted compound, followed by incubation at room temperature for 30 minutes. For the kinase reaction, ATP and a substrate solution specific urea-polypeptide (ULIGHT™-poly TK, PerkinElimer) were added. The reaction was carried out at room temperature for 1 hour, and it was detected with an detection solution (brand name: LANCE™) containing EDTA. A LANCE detection solution containing europium-labeled antibody ([…] PT66) was added, followed by incubation at room temperature for 50 minutes, to terminate the kinase experiment. The phosphorylated substrate was detected by 665 nm emission measurement. IC50 values were calculated by a non-linear regression analysis using a Prism program (PRISM™ software) with reference to the absence of a kinase inhibitor.
# As a comparative assay, a compound LRR2-IN-1, that known to be a reference compound for LRRK2 inhibitor, have also tested an inhibitory activity.
# [1] = Table 1, class symbols, read-out: LRRK2 inhibition rate (IC50)
# [2] = purified LRRK2, Table 6, read-out: IC50
# Sequence of LRRK2 (leucine-rich repeat kinase 2) (Q5S007 whole entry): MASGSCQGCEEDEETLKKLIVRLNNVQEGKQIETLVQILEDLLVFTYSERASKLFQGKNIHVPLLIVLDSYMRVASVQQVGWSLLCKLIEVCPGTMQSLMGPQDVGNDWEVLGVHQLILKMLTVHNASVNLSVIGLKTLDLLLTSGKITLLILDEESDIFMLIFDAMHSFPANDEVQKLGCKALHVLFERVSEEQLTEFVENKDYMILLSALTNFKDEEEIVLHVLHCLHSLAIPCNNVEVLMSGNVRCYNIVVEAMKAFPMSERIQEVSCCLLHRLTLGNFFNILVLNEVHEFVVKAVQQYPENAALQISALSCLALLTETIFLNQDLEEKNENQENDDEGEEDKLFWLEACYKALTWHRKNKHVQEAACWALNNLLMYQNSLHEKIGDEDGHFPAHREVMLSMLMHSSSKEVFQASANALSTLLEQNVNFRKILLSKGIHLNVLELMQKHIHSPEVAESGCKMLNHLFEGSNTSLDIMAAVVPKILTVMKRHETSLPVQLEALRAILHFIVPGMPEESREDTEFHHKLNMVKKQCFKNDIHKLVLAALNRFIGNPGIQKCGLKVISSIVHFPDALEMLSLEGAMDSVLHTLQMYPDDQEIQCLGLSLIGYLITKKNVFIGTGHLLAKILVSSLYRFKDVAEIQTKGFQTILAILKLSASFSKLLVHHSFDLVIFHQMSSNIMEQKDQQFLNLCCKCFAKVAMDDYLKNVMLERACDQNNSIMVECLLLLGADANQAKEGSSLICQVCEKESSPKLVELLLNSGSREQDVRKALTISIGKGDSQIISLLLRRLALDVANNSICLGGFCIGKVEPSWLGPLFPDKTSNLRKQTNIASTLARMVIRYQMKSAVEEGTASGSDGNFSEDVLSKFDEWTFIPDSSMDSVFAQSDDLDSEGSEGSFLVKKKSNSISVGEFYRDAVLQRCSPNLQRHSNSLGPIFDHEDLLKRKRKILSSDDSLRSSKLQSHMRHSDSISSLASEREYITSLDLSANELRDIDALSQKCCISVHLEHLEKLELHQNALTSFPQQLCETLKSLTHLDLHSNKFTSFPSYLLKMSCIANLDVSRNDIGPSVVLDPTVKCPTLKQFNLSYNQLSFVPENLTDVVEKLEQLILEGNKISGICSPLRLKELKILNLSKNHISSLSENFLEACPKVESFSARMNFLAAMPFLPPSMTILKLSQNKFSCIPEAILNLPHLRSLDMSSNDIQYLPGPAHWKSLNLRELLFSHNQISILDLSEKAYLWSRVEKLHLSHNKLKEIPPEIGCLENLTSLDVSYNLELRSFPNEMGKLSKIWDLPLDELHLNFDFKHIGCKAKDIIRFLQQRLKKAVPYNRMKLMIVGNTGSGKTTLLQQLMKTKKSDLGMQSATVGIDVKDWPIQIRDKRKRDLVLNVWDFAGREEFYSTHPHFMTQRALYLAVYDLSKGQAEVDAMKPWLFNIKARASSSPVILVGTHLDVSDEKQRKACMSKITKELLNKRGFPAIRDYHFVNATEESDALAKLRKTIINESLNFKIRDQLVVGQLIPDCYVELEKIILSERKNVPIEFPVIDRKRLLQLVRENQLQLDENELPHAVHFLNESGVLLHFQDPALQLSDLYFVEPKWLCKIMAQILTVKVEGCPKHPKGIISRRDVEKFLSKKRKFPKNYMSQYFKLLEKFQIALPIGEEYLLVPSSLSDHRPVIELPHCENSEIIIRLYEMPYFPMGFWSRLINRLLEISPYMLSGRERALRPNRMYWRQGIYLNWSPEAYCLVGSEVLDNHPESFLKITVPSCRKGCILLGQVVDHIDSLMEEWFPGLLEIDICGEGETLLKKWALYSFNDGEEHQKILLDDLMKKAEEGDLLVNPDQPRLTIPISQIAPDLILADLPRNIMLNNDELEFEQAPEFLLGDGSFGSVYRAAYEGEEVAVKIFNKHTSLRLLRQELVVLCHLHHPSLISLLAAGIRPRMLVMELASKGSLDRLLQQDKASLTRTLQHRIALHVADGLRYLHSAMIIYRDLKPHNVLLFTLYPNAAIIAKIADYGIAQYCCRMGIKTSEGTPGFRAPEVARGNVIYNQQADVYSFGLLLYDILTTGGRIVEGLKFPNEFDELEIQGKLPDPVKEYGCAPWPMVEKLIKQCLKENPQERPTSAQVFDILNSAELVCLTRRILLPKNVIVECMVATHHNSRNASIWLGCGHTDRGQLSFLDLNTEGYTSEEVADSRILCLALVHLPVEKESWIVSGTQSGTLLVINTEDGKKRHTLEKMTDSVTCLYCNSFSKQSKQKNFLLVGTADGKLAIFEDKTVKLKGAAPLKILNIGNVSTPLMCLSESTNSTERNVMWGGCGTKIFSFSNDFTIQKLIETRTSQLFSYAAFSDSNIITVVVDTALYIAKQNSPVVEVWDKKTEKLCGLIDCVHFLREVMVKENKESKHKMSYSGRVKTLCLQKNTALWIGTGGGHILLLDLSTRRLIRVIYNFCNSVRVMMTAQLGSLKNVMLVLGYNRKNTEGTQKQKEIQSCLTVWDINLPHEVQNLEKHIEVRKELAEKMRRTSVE
IC50 [1],IC50 [2],Structure (SMILES)
< 10 nM,5.92 nM,"CCn1nc(Cl)c2cnc(Nc3cn(C4CCN(C(C)=O)CC4)nc3Cl)nc21 [Compound 58, 1-(4-(3-chloro-4-(3-chloro-1-ethyl-1H-pyrazolo[3,4-d]pyrimidin-6-ylamino)-1H-pyrazol-1-yl)piperidin-1-yl)ethanone]"
< 10 nM,6.66 nM,"CCn1cc(Cl)c2cnc(Nc3cn(C4CCN(S(=O)(=O)C5CC5)CC4)nc3Cl)nc21 [Compound 35, 5-chloro-N-(3-chloro-1-(1-(cyclopropylsulfonyl)piperidin-4-yl)-1H-pyrazol-4-yl)-7-ethyl-7H-pyrrolo[2,3-d]pyrimidin-2-amine]"
< 10 nM,7.22 nM,"CCn1nc(Cl)c2cnc(Nc3cn(C4CCN(C(=O)C5CC5)CC4)nc3Cl)nc21 [Compound 57, (4-(3-chloro-4-(3-chloro-1-ethyl-1H-pyrazolo[3,4-d]pyrimidin-6-ylamino)-1H-pyrazol-1-yl)piperidin-1-yl)(cyclopropyl)methanone]"
